Measurements as given in the NIST ThermoML archive (doi:10.1016/j.fluid.2014.02.018).
Numbers after ± are expanded uncertainties.

Conditions: 313.15 K; Liquid; Closed cell (Static) method

| vapor or sublimation pressure [kPa] | SMILES |
| --- | --- |
| 6.045 ± 0.02 | CCC(C)O (stereo not drawn) [butan-2-ol] |
| 12.95 ± 0.031 | CC(C)CC(C)(C)C [2,2,4-trimethylpentane] |
| 44.98 ± 0.2 | C=CCCCC [hex-1-ene] |
